# Columns and labels:
# [1] = target: L-lactate dehydrogenase A chain (Homo sapiens, UniProt P00338); test: Inhibition of human LDH-A by biochemical assay
# [2] = target: T1, Malate dehydrogenase, cytoplasmic (Homo sapiens, UniProt P40925); test: Inhibition of malate dehydrogenase 1 (unknown origin)
# T1 sequence (P40925 whole entry): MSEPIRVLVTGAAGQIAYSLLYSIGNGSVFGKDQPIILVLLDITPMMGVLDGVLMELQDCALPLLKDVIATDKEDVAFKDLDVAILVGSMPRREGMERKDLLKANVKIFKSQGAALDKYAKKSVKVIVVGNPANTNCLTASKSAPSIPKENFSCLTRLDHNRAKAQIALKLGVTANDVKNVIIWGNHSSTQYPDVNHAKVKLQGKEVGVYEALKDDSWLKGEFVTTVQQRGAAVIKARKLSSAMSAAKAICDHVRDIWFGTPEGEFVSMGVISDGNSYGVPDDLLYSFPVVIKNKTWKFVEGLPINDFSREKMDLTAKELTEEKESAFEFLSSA
# [3] = target: T2, Malate dehydrogenase, mitochondrial (Homo sapiens, UniProt P40926); test: Inhibition of malate dehydrogenase 2 (unknown origin)
# T2 sequence (P40926 whole entry): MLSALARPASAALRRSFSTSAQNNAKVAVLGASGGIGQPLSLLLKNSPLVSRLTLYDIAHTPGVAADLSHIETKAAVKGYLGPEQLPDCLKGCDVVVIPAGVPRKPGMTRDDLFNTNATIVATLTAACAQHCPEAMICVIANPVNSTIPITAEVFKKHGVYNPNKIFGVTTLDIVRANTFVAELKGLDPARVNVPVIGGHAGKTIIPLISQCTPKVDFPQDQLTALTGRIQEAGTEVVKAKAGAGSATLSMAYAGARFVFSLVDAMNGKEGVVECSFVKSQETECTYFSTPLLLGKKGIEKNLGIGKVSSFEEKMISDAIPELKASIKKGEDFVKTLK
# [4] = Plasma protein binding in human; type: ADME, cell-free; conditions: read-out: PPB
# [5] = Apparent permeability from apical to basolateral side in MDCK cells; type: ADME, cell-based, Canis lupus familiaris; conditions: dog
# [6] = Kinetic solubility of the compound in PBS buffer at pH 7.4
# [7] = target: L-lactate dehydrogenase B chain (Homo sapiens, UniProt P07195)
# L-lactate dehydrogenase B chain, sequence (P07195 whole entry): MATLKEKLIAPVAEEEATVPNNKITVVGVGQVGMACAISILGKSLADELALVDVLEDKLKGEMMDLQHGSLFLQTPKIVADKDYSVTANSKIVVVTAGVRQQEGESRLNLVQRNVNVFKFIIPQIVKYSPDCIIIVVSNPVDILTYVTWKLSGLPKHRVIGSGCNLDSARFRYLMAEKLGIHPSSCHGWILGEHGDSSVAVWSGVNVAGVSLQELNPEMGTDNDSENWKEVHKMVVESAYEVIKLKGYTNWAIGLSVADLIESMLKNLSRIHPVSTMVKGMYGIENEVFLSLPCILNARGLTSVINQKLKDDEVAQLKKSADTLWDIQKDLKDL
# Description: Inhibition of LDH-B (unknown origin)
# [8] = Stability in mouse plasma assessed as parent compound remaining at 37 degC after 1 hr; type: ADME, cell-free; conditions: read-out: Stability
compound,measurement,setting,value
COc1ccc(Cl)c(SC2=C(O)CC(c3c(Cl)cccc3Cl)CC2=O)c1 (configuration not stated),IC50,[1],0.37 µM
same,IC50,[2],≥ 10 µM
same,IC50,[3],≥ 10 µM
CCOC(=O)Cc1ccc(Cl)c(SC2=C(O)CC(c3c(Cl)cccc3Cl)CC2=O)c1 (configuration not stated),IC50,[1],0.13 µM
same,IC50,[2],≥ 10 µM
same,IC50,[3],≥ 10 µM
Nc1ccc(Cl)c(SC2=C(O)CC(c3c(Cl)cccc3Cl)CC2=O)c1 (configuration not stated),IC50,[1],0.64 µM
same,IC50,[2],≥ 10 µM
same,IC50,[3],≥ 10 µM
CC(C)Oc1ccc(Cl)c(C2CC(=O)C(Sc3ccccc3Cl)=C(O)C2)c1Cl (configuration not stated),IC50,[1],0.09 µM
same,IC50,[2],≥ 10 µM
same,IC50,[3],≥ 10 µM
CNc1ccc(Cl)c(SC2=C(O)CC(c3c(Cl)cccc3Cl)CC2=O)c1 (configuration not stated),IC50,[1],0.17 µM
same,IC50,[2],≥ 10 µM
same,IC50,[3],≥ 10 µM
O=C1CC(c2c(Cl)ccc(-c3ccccc3Cl)c2Cl)CC(O)=C1Sc1ccccc1Cl (configuration not stated),IC50,[1],0.06 µM
same,IC50,[2],≥ 10 µM
same,IC50,[3],≥ 10 µM
O=C1CC(c2c(Cl)cccc2Cl)CC(O)=C1Sc1cc(O)ccc1Cl (configuration not stated),IC50,[1],0.12 µM
same,IC50,[2],≥ 10 µM
same,IC50,[3],≥ 10 µM
O=C(Cc1ccc(Cl)c(SC2=C(O)CC(c3c(Cl)cccc3Cl)CC2=O)c1)NCCO (configuration not stated),IC50,[1],0.3 µM
same,IC50,[2],≥ 10 µM
same,IC50,[3],≥ 10 µM
O=C1CC(c2c(Cl)ccc(NC3CCOCC3)c2Cl)CC(O)=C1Sc1ccccc1Cl (configuration not stated),IC50,[1],0.06 µM
same,IC50,[2],≥ 10 µM
same,IC50,[3],≥ 10 µM
CC(C)Oc1ccc(Cl)c(C2CC(=O)C(Sc3cc(O)ccc3C#N)=C(O)C2)c1Cl (configuration not stated),IC50,[1],0.015 µM
same,IC50,[2],≥ 10 µM
same,IC50,[3],≥ 10 µM
same,fraction unbound,[4],< 0.001
same,Papp A→B,[5],1.1 ×10⁻⁶ cm/s
same,solubility kinetic,[6],50 µM
same,IC50,[7],0.14 µM
COc1ccc(Cl)c(SC2=C(O)CC(c3c(Cl)ccc(-c4ccncc4)c3Cl)CC2=O)c1 (configuration not stated),IC50,[1],0.035 µM
same,IC50,[2],≥ 10 µM
same,IC50,[3],≥ 10 µM
CC(C)Oc1ccc(Cl)c(C2CC(=O)C(Sc3cc(O)ccc3Cl)=C(O)C2)c1Cl (configuration not stated),IC50,[1],0.03 µM
same,IC50,[2],≥ 10 µM
same,IC50,[3],≥ 10 µM
CC(=O)N1CCN(c2ccc(Cl)c(C3CC(=O)C(Sc4ccccc4Cl)=C(O)C3)c2Cl)CC1 (configuration not stated),IC50,[1],0.1 µM
same,IC50,[2],≥ 10 µM
same,IC50,[3],≥ 10 µM
COc1ccc(Cl)c(SC2=C(O)CC(c3c(Cl)ccc(NC4CCOCC4)c3Cl)CC2=O)c1 (configuration not stated),IC50,[1],0.03 µM
same,IC50,[2],≥ 10 µM
same,IC50,[3],≥ 10 µM
same,fraction unbound,[4],< 0.001
same,Papp A→B,[5],14 ×10⁻⁶ cm/s
same,solubility kinetic,[6],49 µM
C[C@H](OC(=O)Cc1ccc(Cl)c(SC2=C(O)CC(c3c(Cl)cccc3Cl)CC2=O)c1)c1ccccc1 (some centres not stated),IC50,[1],0.09 µM
same,IC50,[2],≥ 10 µM
same,IC50,[3],≥ 10 µM
COc1ccc(C#N)c(SC2=C(O)CC(c3c(Cl)ccc(OC(C)C)c3Cl)CC2=O)c1 (configuration not stated),IC50,[1],0.46 µM
same,IC50,[2],≥ 10 µM
same,IC50,[3],≥ 10 µM
same,IC50,[7],2.4 µM
O=C1CC(c2c(Cl)ccc(-c3ccccc3)c2Cl)CC(O)=C1Sc1ccccc1Cl (configuration not stated),IC50,[1],0.1 µM
same,IC50,[2],≥ 10 µM
same,IC50,[3],≥ 10 µM
CNC(=O)Cc1ccc(Cl)c(SC2=C(O)CC(c3c(Cl)cccc3Cl)CC2=O)c1 (configuration not stated),IC50,[1],1.8 µM
same,IC50,[2],≥ 10 µM
same,IC50,[3],≥ 10 µM
O=C(O)Cc1ccc(Cl)c(SC2=C(O)CC(c3c(Cl)cccc3Cl)CC2=O)c1 (configuration not stated),IC50,[1],3.5 µM
same,IC50,[2],≥ 10 µM
same,IC50,[3],≥ 10 µM
O=C1CC(c2c(Cl)ccc(N3CCOCC3)c2Cl)CC(O)=C1Sc1ccccc1Cl (configuration not stated),IC50,[1],0.24 µM
same,IC50,[2],≥ 10 µM
same,IC50,[3],≥ 10 µM
C[C@@H](OC(=O)Cc1ccc(Cl)c(SC2=C(O)CC(c3c(Cl)cccc3Cl)CC2=O)c1)c1ccccc1 (some centres not stated),IC50,[1],0.006 µM
same,IC50,[2],≥ 10 µM
same,IC50,[3],≥ 10 µM
same,Papp A→B,[5],10.6 ×10⁻⁶ cm/s
same,solubility kinetic,[6],61 µM
same,remaining at 1 h,[8],72%
O=C1CC(c2c(Cl)cc(N3CCOCC3)cc2Cl)CC(O)=C1Sc1ccccc1Cl (configuration not stated),IC50,[1],2.6 µM
same,IC50,[2],≥ 10 µM
same,IC50,[3],≥ 10 µM
O=C1CC(c2c(Cl)ccc(-c3cccnc3)c2Cl)CC(O)=C1Sc1ccccc1Cl (configuration not stated),IC50,[1],0.108 µM
same,IC50,[2],≥ 10 µM
same,IC50,[3],≥ 10 µM
O=C1CC(c2c(Cl)ccc(-c3ccncc3)c2Cl)CC(O)=C1Sc1ccccc1Cl (configuration not stated),IC50,[1],0.085 µM
same,IC50,[2],≥ 10 µM
same,IC50,[3],≥ 10 µM
O=C1CC(c2c(Cl)ccc(N3CCN(C4CC4)CC3)c2Cl)CC(O)=C1Sc1ccccc1Cl (configuration not stated),IC50,[1],0.23 µM
same,IC50,[2],≥ 10 µM
same,IC50,[3],≥ 10 µM
COc1ccc(Cl)c(SC2=C(O)CC(c3c(Cl)ccc(OC(C)C)c3Cl)CC2=O)c1 (configuration not stated),IC50,[1],0.025 µM
same,IC50,[2],≥ 10 µM
same,IC50,[3],≥ 10 µM
CC(C)OC(=O)Cc1ccc(Cl)c(SC2=C(O)CC(c3c(Cl)cccc3Cl)CC2=O)c1 (configuration not stated),IC50,[1],0.12 µM
same,IC50,[2],≥ 10 µM
same,IC50,[3],≥ 10 µM
O=C1CC(c2c(Cl)ccc(N3CCN(C4COC4)CC3)c2Cl)CC(O)=C1Sc1ccccc1Cl (configuration not stated),IC50,[1],0.37 µM
same,IC50,[2],≥ 10 µM
same,IC50,[3],≥ 10 µM
O=C1CC(c2c(Cl)ccc(N3CCNCC3)c2Cl)CC(O)=C1Sc1ccccc1Cl (configuration not stated),IC50,[1],0.17 µM
same,IC50,[2],≥ 10 µM
same,IC50,[3],≥ 10 µM
CN(C)C(=O)Cc1ccc(Cl)c(SC2=C(O)CC(c3c(Cl)cccc3Cl)CC2=O)c1 (configuration not stated),IC50,[1],10 µM
same,IC50,[2],≥ 10 µM
same,IC50,[3],≥ 10 µM
COC(=O)Cc1ccc(Cl)c(SC2=C(O)CC(c3c(Cl)cccc3Cl)CC2=O)c1 (configuration not stated),IC50,[1],0.04 µM
same,IC50,[2],≥ 10 µM
same,IC50,[3],≥ 10 µM
O=C1CC(c2c(Cl)cccc2Cl)CC(O)=C1Sc1ccccc1Cl (configuration not stated),IC50,[2],≥ 10 µM
same,IC50,[3],≥ 10 µM
CCOC(=O)Cc1ccc(Cl)c(SC2=C(O)CC(c3c(Cl)ccc(-c4ccccc4)c3Cl)CC2=O)c1 (configuration not stated),IC50,[1],0.03 µM
same,IC50,[2],≥ 10 µM
same,IC50,[3],≥ 10 µM
O=C1CC(c2c(Cl)ccc(-c3cncnc3)c2Cl)CC(O)=C1Sc1ccccc1Cl (configuration not stated),IC50,[1],1.1 µM
same,IC50,[2],≥ 10 µM
same,IC50,[3],≥ 10 µM

# Source: ChEMBL document CHEMBL3580578, “Optimization of 5-(2,6-dichlorophenyl)-3-hydroxy-2-mercaptocyclohex-2-enones as potent inhibitors of human lactate dehydrogenase” (Bioorg Med Chem Lett, 2014)
